Among the data in patent publication US11691970B2, “Pyrazolopyridinone compounds” (Janssen Pharmaceutica NV, priority 2017, dated 2023) are GI50 and IC50 values, retold here.

The target in assay [1] is T1, NIH/3T3 cells overexpressing FGFR3 WT-TACC3 fusion protein (Homo sapiens, UniProt P22607).
T1 construct: NIH/3T3 FGFR3 WT-TACC3 CTG (IC50); other: 72-hr incubation, CellTiter Glo, top concentration 10 μM; fused on or other part: Q9Y6A5 (Transforming acidic coiled-coil-containing protein 3)
Briefly: NIH/3T3 FGFR3 WT-TACC3 cell proliferation assay (CellTiter Glo). The settings on record: 72-hr incubation, top concentration 10 μM, read-out: NIH/3T3 FGFR3 WT-TACC3 CTG (IC50). Format: cell-based. The method, then:
NIH/3T3 FGFR3 WT-TACC3 Cell Proliferation Assay
In day 1, 90 μL of cell suspension (NIH/3T3 cells overexpressing FGFR3 WT-TACC3 fusion protein) (total 30,000 cells per well in growth medium (DMEM containing 1% Glutamax, 10% FBS and 1% Pen/Strep)) was seeded in a 96-well plate and then incubated overnight at 37° C. and 5% CO2. […] After 72-hr incubation at 37° C. and 5% CO2, in day 5 a volume of 50 μL CellTiter Glo (CTG) reagent was added into cell-containing 96-well plate and the plate was incubated at room temperature for 10 minutes before RLUs (relative light unit) were measured on a microplate reader with luminescence detection module.

The subject of assay [2] is NIH/3T3 cells transfected with control vector. Briefly: NIH/3T3 mock cell proliferation assay (counter assay, CellTiter Glo). Format: cell-based. The settings on record: Mus musculus, top concentration 30 μM, counter assay for general toxicity, read-out: NIH/3T3 MOCK CTG (IC50). The method, then:
NIH/3T3 Mock Cell Proliferation Assay
In day 1, 90 μL of cell suspension (NIH/3T3 cells transfected with the same control vector as in the above two proliferation assays) (total 30,000 cells per well in growth medium (DMEM containing 1% Glutamax, 10% FBS and 1% Pen/Strep)) was seeded in a 96-well plate and then incubated overnight at 37° C. and 5% CO2. In day 2, 10 μL of growth medium containing 10-fold stock solution of testing compound was added into cell cultures (9 dose points with 3× serial dilution, starting with 30 μM, 0.3% DMSO final). After 72-hr incubation at 37° C. and 5% CO2, in day 5 a volume of 50 μL CellTiter Glo (CTG) reagent was added into cell-containing 96-well plate and the plate was incubated at room temperature for 10 minutes before RLUs (relative light unit) were measured on a microplate reader with luminescence detection module.
Background: In ATP-based viability assays light output follows the ATP content of the culture.

The target in assay [3] is T2, human FGFR3 wild type enzyme (cytoplasmic domain) (Homo sapiens, UniProt P22607).
T2 construct: human FGFR3 wild type enzyme (cytoplasmic domain, from Carna Biosciences); purchased Carna Biosciences
T2 sequence (P22607 397-806 limits assumed): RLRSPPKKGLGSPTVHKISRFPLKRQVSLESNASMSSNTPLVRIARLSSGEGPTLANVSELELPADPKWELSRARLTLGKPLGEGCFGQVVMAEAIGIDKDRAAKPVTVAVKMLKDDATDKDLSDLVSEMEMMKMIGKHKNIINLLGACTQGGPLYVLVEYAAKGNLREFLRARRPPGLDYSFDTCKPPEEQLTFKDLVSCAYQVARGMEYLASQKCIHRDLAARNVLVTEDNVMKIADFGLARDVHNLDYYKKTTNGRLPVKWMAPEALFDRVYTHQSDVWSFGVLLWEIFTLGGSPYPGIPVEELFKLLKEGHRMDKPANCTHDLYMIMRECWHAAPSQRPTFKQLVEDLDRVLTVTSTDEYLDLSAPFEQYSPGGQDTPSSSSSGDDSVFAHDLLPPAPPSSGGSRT
Briefly: FGFR3 wild type mobility shift assay (enzymatic assay). Format: biochemical. The conditions noted are these: 75 μM ATP, 50 minutes at 30° C, Caliper EZ reader II. The source says:
FGFR3 Wild Type Mobility Shift Assay (Enzymatic Assay)

Where two headings read alike, the source gives them in different places.

T1 sequence (P22607 whole entry, change not shown, the tested form may be a part): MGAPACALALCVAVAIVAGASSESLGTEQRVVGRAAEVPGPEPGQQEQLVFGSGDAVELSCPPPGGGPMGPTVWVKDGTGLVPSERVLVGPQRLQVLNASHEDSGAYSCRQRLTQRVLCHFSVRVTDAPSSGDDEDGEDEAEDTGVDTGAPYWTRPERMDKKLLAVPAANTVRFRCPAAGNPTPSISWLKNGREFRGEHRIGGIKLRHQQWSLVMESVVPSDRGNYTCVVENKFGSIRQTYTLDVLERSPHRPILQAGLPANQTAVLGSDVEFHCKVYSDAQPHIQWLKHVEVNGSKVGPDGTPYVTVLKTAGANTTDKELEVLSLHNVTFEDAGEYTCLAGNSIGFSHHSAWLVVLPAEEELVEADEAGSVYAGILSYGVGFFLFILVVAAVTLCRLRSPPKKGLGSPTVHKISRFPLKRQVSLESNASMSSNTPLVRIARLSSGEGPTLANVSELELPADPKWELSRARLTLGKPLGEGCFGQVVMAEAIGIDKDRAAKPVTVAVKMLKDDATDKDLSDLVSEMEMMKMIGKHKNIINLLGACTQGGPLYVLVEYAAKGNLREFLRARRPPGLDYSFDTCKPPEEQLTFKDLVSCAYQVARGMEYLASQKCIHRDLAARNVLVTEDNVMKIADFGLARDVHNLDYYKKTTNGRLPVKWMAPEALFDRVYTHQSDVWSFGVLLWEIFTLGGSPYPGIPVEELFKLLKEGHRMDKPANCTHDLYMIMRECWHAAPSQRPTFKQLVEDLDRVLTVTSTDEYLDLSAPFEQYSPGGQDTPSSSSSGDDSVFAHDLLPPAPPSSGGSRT

With `CC(Nc1c(-c2nc3ccc(N4CCCCC4)c(F)c3[nH]2)c(=O)[nH]c2cn(C)nc12)c1ncccn1` (single isomer, unassigned) [Compound 15, (S*)-6-(7-fluoro-6-(piperidin-1-yl)-1H-benzo[d]imidazol-2-yl)-2-methyl-7-((1-(pyrimidin-2-yl)ethyl)amino)-2H-pyrazolo[4,3-b]pyridin-5(4H)-one], the GI50 in assay [1] was determined as 16.9 nM. In addition, the IC50 in assay [2] (NIH3T3, 72 h, 72-hr incubation) stood at 3700 nM; in assay [3], 1.06 nM.
On the same counts, the results for `CCn1cc2[nH]c(=O)c(-c3nc4c(F)cc(N5CCOCC5)cc4[nH]3)c(N[C@@H](C)c3ncccn3)c2n1` [Compound 6, (S)-2-ethyl-6-(4-fluoro-6-morpholino-1H-benzo[d]imidazol-2-yl)-7-((1-(pyrimidin-2-yl)-ethyl)amino)-2,4-dihydro-5H-pyrazolo[4,3-b]pyridin-5-one] are 13.8 nM, 1280 nM and 1.16 nM.
On the same counts, the results for `C[C@H](Nc1c(-c2nc3ccc(C4CCOCC4)c(F)c3[nH]2)c(=O)[nH]c2cn(C)nc12)c1ncccn1` [Compound 13, (S)-6-(7-fluoro-6-(tetrahydro-2H-pyran-4-yl)-1H-benzo[d]imidazol-2-yl)-2-methyl-7-((1-(pyrimidin-2-yl)ethyl)amino)-2H-pyrazolo[4,3-b]pyridin-5(4H)-one] are 22.1 nM, 2100 nM and 1.15 nM.
On to `CCn1cc2[nH]c(=O)c(-c3nc4c(F)cc(N5CCN(C)CC5)cc4[nH]3)c(N[C@@H](C)c3ncccn3)c2n1` [Compound 48, (S)-2-ethyl-6-(4-fluoro-6-(4-methylpiperazin-1-yl)-1H-benzo[d]imidazol-2-yl)-7-((1-(pyrimidin-2-yl)ethyl)amino)-2H-pyrazolo[4,3-b]pyridin-5(4H)-one], for which the GI50 in assay [1] was 9.04 nM. Besides, the IC50 is 352 nM in assay [2] (NIH3T3, 72 h, 72-hr incubation) and 0.738 nM in assay [3].
On the same counts, the results for `CCn1cc2[nH]c(=O)c(-c3nc4cc(C)c(N5CCOCC5)cc4[nH]3)c(N[C@@H](C)c3ncccn3)c2n1` [Compound 5, (S)-2-ethyl-6-(5-methyl-6-morpholino-1H-benzo[d]imidazol-2-yl)-7-((1-(pyrimidin-2-yl)-ethyl)amino)-2,4-dihydro-5H-pyrazolo[4,3-b]pyridin-5-one] are 19.7 nM, 1050 nM and 1.78 nM.
With `COc1cc(N2CCOCC2)cc2[nH]c(-c3c(NC(C)c4ncccn4)c4nn(C)cc4[nH]c3=O)nc12` (single isomer, unassigned) [Compound 51, (S*)-6-(4-methoxy-6-morpholino-1H-benzo[d]imidazol-2-yl)-2-methyl-7-((1-(pyrimidin-2-yl)ethyl)amino)-2,4-dihydro-5H-pyrazolo[4,3-b]pyridin-5-one], the GI50 in assay [1] came to 44.6 nM. Further, the IC50 in assay [2] (NIH3T3, 72 h, 72-hr incubation) was 1160 nM; in assay [3], 0.788 nM.
On the same counts, the results for `C[C@H](Nc1c(-c2nc3ccc(N4CCN(C)CC4)cc3[nH]2)c(=O)[nH]c2cn(C)nc12)c1ccccc1` [Compound 18, (S)-2-Methyl-6-(6-(4-methylpiperazin-1-yl)-1H-benzo[d]imidazol-2-yl)-7-((1-phenylethyl)amino)-2H-pyrazolo[4,3-b]pyridin-5(4H)-one] are 74.3 nM, 680 nM and 2.02 nM.
The like results for `CCn1cc2[nH]c(=O)c(-c3nc4c(F)cc(N5CC(OC)C5)cc4[nH]3)c(N[C@@H](C)c3ncccn3)c2n1` [Compound 49, (S)-2-ethyl-6-(4-fluoro-6-(3-methoxyazetidin-1-yl)-1H-benzo[d]imidazol-2-yl)-7-((1-(pyrimidin-2-yl)ethyl)amino)-2H-pyrazolo[4,3-b]pyridin-5(4H)-one] were, in that order, 28.1 nM, 460 nM and 2.51 nM.
Regarding `COc1cc2nc(-c3c(N[C@@H](C)c4ncccn4)c4nn(C)cc4[nH]c3=O)[nH]c2cc1N1CCOCC1` [Compound 52, (S)-6-(5-methoxy-6-morpholino-1H-benzo[d]imidazol-2-yl)-2-methyl-7-((1-(pyrimidin-2-yl)ethyl)amino)-2H-pyrazolo[4,3-b]pyridin-5(4H)-one], the GI50 in assay [1] came to 4.11 nM. In addition, the IC50 in assay [2] (NIH3T3, 72 h, 72-hr incubation) turned out to be 390 nM; in assay [3] it was 0.704 nM.
Turning to `CCn1cc2[nH]c(=O)c(-c3nc4cnc(N5CCOCC5)cc4[nH]3)c(N[C@@H](C)c3ccccn3)c2n1` [Compound 47, (S)-2-ethyl-6-(6-morpholino-1H-imidazo[4,5-c]pyridin-2-yl)-7-((1-(pyridin-2-yl)ethyl)-amino)-2,4-dihydro-5H-pyrazolo[4,3-b]pyridin-5-one], the GI50 in assay [1] turned out to be 17.4 nM. Besides, the IC50 came to 1040 nM in assay [2] (NIH3T3, 72 h, 72-hr incubation) and 2.03 nM in assay [3].
For the compound `CC(Nc1c(-c2nc3cc(C(F)(F)F)c(N4CCOCC4)cc3[nH]2)c(=O)[nH]c2cn(C)nc12)c1cocn1` (single isomer, unassigned) [Compound 10, (S*)-2-methyl-6-(6-morpholino-5-(trifluoromethyl)-1H-benzo[d]imidazol-2-yl)-7-((1-(oxazol-4-yl)ethyl)amino)-2H-pyrazolo[4,3-b]pyridin-5(4H)-one], in assay [2] (NIH3T3, 72-hr incubation), the IC50 is 18400 nM.
The same measure, in the same setting: the value for `CC(Nc1c(-c2nc3ccc(N4C[C@@H](C)O[C@H](C)C4)cc3[nH]2)c(=O)[nH]c2cn(C)nc12)c1ncccn1` (single isomer, unassigned) [Compound 12, 6-(6-((2R,6R)-2,6-dimethylmorpholino)-1H-benzo[d]imidazol-2-yl)-2-methyl-7-(((S*)-1-(pyrimidin-2-yl)ethyl)amino)-2H-pyrazolo[4,3-b]pyridin-5(4H)-one] was 454 nM.
Turning to `CCC(Nc1c(-c2nc3ccc(N4CCOCC4)cc3[nH]2)c(=O)[nH]c2cn(C)nc12)c1ncccn1` (single isomer, unassigned) [Compound 40, (R*)-2-methyl-6-(6-morpholino-1H-benzo[d]imidazol-2-yl)-7-((1-(pyrimidin-2-yl)-propyl)amino)-2H-pyrazolo[4,3-b]pyridin-5(4H)-one], the IC50 in assay [3] turned out to be 531 nM.
Same read-out and setting: in the case of `COCC(Nc1c(-c2nc3c(F)cc(N4CCOCC4)cc3[nH]2)c(=O)[nH]c2cn(C)nc12)c1ncccn1` (single isomer, unassigned) [Compound 30, (R*)-6-(4-fluoro-6-morpholino-1H-benzo[d]imidazol-2-yl)-7-((2-methoxy-1-(pyrimidin-2-yl)ethyl)amino)-2-methyl-2H-pyrazolo[4,3-b]pyridin-5(4H)-one] it was 469 nM; in that of `CCn1cc2[nH]c(=O)c(-c3nc4ccc(N5CCOCC5)cc4[nH]3)c(NC(C)c3cocn3)c2n1` (single isomer, unassigned) [Compound 4B, (R*)-2-ethyl-6-(6-morpholino-1H-benzo[d]imidazol-2-yl)-7-((1-(oxazol-4-yl)ethyl)-amino)-2H-pyrazolo[4,3-b]pyridin-5(4H)-one], 657 nM.
Same read-out and setting: the value for `C[C@H](Nc1c(-c2nc3cnc(N4CCOCC4)cc3[nH]2)c(=O)[nH]c2cn(C)nc12)c1cocn1` [Compound 56, (S)-2-methyl-6-(6-morpholino-1H-imidazo[4,5-c]pyridin-2-yl)-7-((1-(oxazol-4-yl)ethyl)-amino)-2,4-dihydro-5H-pyrazolo[4,3-b]pyridin-5-one] was 156 nM.
